Measured values taken from US12064425B2, “Compositions and methods for targeting a viral infection” (priority 2018, dated 2024).
Entries after “also recorded” stand apart in the source; their conditions may differ. Read-outs that look alike come from different tables or passages of the source.

What was measured:
HIV-1 Env = HIV-1 Env (Human immunodeficiency virus type 1, UniProt Q71014)
2F5 Fab = experiment: SPR analysis of compound binding to 2F5 Fab
[1] = tested on: gp41-inter binding to 2F5 Fab; parameters: species or system HIV-1
[2] = tested on: gp41-inter binding to 240D Fab; parameters: species or system HIV-1
HIV-1 Env pseudoviruses = assay type: cell-based
[3] = molecular target: 92UG037.8 HIV-1 Env W666A (Human immunodeficiency virus type 1, UniProt Q71014, W659A); assay type: cell-based
[4] = tested on: Env-expressing cells, CD4- and CCR5-expressing cells
gp41-inter = gp41-inter (Human immunodeficiency virus type 1, UniProt Q71014); assay type: binding, HIV-1

In the case of `Cc1cc(N)cc[n+]1CCCCCCCCCC[n+]1ccc(N)cc1C` [Compound S2C9], the “inhibition potency in the cell-cell fusion assay compared to dequalinium” value (from here on “inhibition potency … compared to dequalinium”) (HIV-1 Env) is reported as “significant decreases in potency”.

For `Nc1cc[n+](CCCCCCCCCC[n+]2ccc(N)c3cc(Br)ccc32)c2ccc(Br)cc12` [Compound S2C7], the “inhibition potency … compared to dequalinium” value (HIV-1 Env) was “modestly improved potency”.

With `Nc1c2c([n+](CCCCCCCCCC[n+]3c4c(c(N)c5ccccc53)CCC4)c3ccccc13)CCC2` [Compound S2C3] the “binding to 2F5” value (2F5 Fab) was “no binding”, the “competition with 2F5 for binding to gp41-inter” value [1] was “competed with 2F5 for binding to gp41-inter” and the “competition with 240D Fab for binding to gp41-inter” value [2] was “not with a cluster I antibody, 240D Fab”. For the same compound, the “potency of inhibition of viral infectivity compared to dequalinium” value (HIV-1 Env pseudoviruses) was “improvement in potency” and the “inhibition potency … compared to dequalinium” value (HIV-1 Env) was “significant improvement”.

For `Cc1cc(N)c2ccccc2[n+]1CCCCCCCCCC[n+]1c(C)cc(N)c2ccccc21` [dequalinium, quinolinium,1,1′-(1,10-decanediyl)-bis(4-amino-2-methyldiiodide)], the “binding to 2F5” value (2F5 Fab; SPR) was “no binding”, the “inhibition of HIV-1 infectivity versus MuLV control” value (HIV-1 Env pseudoviruses) was “greater inhibition to several HIV-1 isolates” and the “resistance of mutant Env to inhibition of cell-cell fusion versus wildtype Env” value [3] was “significantly more resistant”. The “inhibition of cell-cell fusion mediated by Envs of primary HIV-1 isolates of different clades” value (HIV-1 Env) was “can also target Envs from multiple primary HIV-1 isolates of different clades; also recorded: specifically inhibited cell-cell fusion”, the “cytotoxicity by an assay measuring ATP concentration” value [4] was “minimal level of cytotoxicity” and the “cytotoxicity in the viral infectivity assay” value (TZM.bl cells) was “more cytotoxicity than in the cell-cell fusion assay”.

In the case of `c1ccc2c(c1)ccc[n+]2CCCCCCCCCC[n+]1cccc2ccccc21` [Compound S2C10], the “binding to gp41-inter (in words)” value (gp41-inter) is reported as “no binding” and the “inhibition potency … compared to dequalinium” value (HIV-1 Env) is reported as “significant decreases in potency”.

In the case of `Cc1cc(N)c2ccccc2n1` [4-aminoquinaldine], the “activity in blocking HIV-1 Env mediated cell-cell fusion (in words)” value (HIV-1 Env) is reported as “no activity”.

`Nc1cc[n+](CCCCCCCCCC[n+]2ccc(N)c3ccccc32)c2ccccc12` [Compound S2C1] was tested, and the “inhibition potency … compared to dequalinium” value (HIV-1 Env) was “significant decreases in potency”.
